Experiments:
Experiment in all cases: Proqinase Kinase profiling
Type in all cases: biochemical
Settings in all cases: read-out: % inhibition at 100nM
[1] = target: T1, NTRK2 (Homo sapiens, UniProt Q16620)
T1 construct: purchased DiscoverX

[2] = target: T2, CSNK1E (Homo sapiens, UniProt P49674)
T2 construct: purchased DiscoverX

[3] = target: T3, CSNK1G1 (Homo sapiens, UniProt Q9HCP0)
T3 construct: purchased DiscoverX

[4] = target: T4, TSSK2 (Homo sapiens, UniProt Q96PF2)
T4 construct: purchased DiscoverX

[5] = target: T5, HIPK4 (Homo sapiens, UniProt Q8NE63)
T5 construct: purchased DiscoverX
T5 sequence (Q8NE63 whole entry): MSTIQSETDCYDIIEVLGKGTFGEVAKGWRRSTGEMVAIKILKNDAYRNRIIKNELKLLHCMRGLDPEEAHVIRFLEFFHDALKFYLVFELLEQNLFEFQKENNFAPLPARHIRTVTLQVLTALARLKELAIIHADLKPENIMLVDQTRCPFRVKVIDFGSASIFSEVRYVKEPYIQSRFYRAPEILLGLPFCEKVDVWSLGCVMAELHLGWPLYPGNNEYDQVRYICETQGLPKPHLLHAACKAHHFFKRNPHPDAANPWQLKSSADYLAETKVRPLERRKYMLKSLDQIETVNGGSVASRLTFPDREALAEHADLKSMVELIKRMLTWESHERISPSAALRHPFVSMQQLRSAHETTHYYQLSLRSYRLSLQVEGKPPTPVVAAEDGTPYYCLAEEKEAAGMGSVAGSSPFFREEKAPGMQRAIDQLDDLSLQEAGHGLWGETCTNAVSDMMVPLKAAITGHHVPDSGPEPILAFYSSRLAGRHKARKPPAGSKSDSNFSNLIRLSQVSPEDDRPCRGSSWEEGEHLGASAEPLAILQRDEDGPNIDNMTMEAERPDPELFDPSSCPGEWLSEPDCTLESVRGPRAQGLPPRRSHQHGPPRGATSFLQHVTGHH

[6] = target: T6, PIM3 (Homo sapiens, UniProt Q86V86)
T6 construct: purchased DiscoverX

[7] = target: T7, PAK4 (Homo sapiens, UniProt O96013)
T7 construct: purchased DiscoverX

[8] = target: T8, NEK3 (Homo sapiens, UniProt P51956)
T8 construct: purchased DiscoverX

[9] = target: T9, MET_D1228N (Homo sapiens, UniProt P08581, D1228N)
T9 construct: purchased DiscoverX

[10] = target: T10, CSNK2A2 (Homo sapiens, UniProt P19784)
T10 construct: purchased DiscoverX

[11] = target: T11, CLK4 (Homo sapiens, UniProt Q9HAZ1)
T11 construct: purchased DiscoverX

[12] = target: T12, NEK2 (Homo sapiens, UniProt P51955)
T12 construct: purchased DiscoverX

[13] = target: T13, MYLK3 (Homo sapiens, UniProt Q32MK0)
T13 construct: purchased DiscoverX

[14] = target: T14, CSNK1G3 (Homo sapiens, UniProt Q9Y6M4)
T14 construct: purchased DiscoverX

[15] = target: T15, MAPK10 (Homo sapiens, UniProt P53779)
T15 construct: purchased DiscoverX
T15 sequence (P53779 whole entry): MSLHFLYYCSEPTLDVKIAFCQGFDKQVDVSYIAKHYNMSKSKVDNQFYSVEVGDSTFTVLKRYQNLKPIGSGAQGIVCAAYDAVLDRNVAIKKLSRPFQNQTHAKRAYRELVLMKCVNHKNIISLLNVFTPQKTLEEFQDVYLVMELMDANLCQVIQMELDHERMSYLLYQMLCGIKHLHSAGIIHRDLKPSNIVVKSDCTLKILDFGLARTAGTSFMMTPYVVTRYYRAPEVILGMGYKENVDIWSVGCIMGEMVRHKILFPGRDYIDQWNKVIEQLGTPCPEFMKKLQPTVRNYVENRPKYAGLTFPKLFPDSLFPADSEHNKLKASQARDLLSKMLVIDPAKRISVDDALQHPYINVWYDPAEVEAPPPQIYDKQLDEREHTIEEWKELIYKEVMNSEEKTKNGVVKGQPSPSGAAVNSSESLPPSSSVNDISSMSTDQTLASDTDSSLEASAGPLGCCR

[16] = target: T16, MAPK3 (Homo sapiens, UniProt P27361)
T16 construct: purchased DiscoverX

[17] = target: T17, ABL1_Q252H (Homo sapiens, UniProt P00519, Q252H)
T17 construct: purchased DiscoverX

[18] = target: T18, CSNK1A1 (Homo sapiens, UniProt P48729)
T18 construct: purchased DiscoverX

[19] = target: T19, PLK4 (Homo sapiens, UniProt O00444)
T19 construct: purchased DiscoverX

[20] = target: T20, CSF1R (Homo sapiens, UniProt P07333)
T20 construct: purchased DiscoverX

[21] = target: T21, FRAP1 (Homo sapiens, UniProt P42345)
T21 construct: purchased DiscoverX

[22] = target: T22, KIT (Homo sapiens, UniProt P10721)
T22 construct: purchased DiscoverX
T22 sequence (P10721 26-976): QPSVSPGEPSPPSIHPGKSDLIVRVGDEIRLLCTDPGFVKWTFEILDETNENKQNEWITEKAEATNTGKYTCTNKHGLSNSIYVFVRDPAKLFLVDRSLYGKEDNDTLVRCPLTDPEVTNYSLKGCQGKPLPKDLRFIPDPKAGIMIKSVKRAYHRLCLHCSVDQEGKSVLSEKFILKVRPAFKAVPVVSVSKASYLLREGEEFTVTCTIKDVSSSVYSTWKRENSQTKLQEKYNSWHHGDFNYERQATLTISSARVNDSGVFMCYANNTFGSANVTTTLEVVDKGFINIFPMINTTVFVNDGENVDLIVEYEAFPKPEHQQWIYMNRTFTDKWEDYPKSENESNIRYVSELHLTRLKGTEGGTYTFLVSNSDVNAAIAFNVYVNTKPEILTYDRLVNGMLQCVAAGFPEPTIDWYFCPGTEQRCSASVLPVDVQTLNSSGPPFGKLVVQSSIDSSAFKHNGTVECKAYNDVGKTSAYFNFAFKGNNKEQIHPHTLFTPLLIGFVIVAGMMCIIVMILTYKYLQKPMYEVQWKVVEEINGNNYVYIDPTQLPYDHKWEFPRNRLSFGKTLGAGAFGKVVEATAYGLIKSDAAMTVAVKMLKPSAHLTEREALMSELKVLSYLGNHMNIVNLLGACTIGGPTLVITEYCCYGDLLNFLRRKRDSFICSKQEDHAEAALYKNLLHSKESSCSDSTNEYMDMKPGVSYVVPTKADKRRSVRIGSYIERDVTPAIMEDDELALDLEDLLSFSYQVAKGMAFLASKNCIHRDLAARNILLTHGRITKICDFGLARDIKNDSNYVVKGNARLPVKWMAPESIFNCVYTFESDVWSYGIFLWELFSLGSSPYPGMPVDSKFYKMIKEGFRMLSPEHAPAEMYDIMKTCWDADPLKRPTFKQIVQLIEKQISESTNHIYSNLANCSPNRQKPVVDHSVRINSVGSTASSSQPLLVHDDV

[23] = target: T23, MET_F1200I (Homo sapiens, UniProt P08581, F1200I)
T23 construct: purchased DiscoverX

[24] = target: T24, MET (Homo sapiens, UniProt P08581)
T24 construct: purchased DiscoverX

[25] = target: T25, KIT_D816V (Homo sapiens, UniProt P10721, D816V)
T25 construct: purchased DiscoverX
T25 sequence (P10721 26-976 D816V): as the sequence (P10721 26-976) above, with D791V counted along it

[26] = target: T26, SRPK3 (Homo sapiens, UniProt Q9UPE1)
T26 construct: purchased DiscoverX

[27] = target: T27, AURKA (Homo sapiens, UniProt O14965)
T27 construct: purchased DiscoverX

[28] = target: T28, NUAK2 (Homo sapiens, UniProt Q9H093)
T28 construct: purchased DiscoverX

[29] = target: T29, ABL1_M351T (Homo sapiens, UniProt P00519, M351T)
T29 construct: purchased DiscoverX

[30] = target: T30, FGFR3 (Homo sapiens, UniProt P22607)
T30 construct: purchased DiscoverX

[31] = target: T31, HIPK3 (Homo sapiens, UniProt Q9H422)
T31 construct: purchased DiscoverX

[32] = target: T32, ERBB4 (Homo sapiens, UniProt Q15303)
T32 construct: purchased DiscoverX

[33] = target: T33, DAPK2 (Homo sapiens, UniProt Q9UIK4)
T33 construct: purchased DiscoverX

[34] = target: T34, KIT_A829P (Homo sapiens, UniProt P10721, A829P)
T34 construct: purchased DiscoverX
T34 sequence (P10721 26-976 A829P): as the sequence (P10721 26-976) above, with A804P counted along it

[35] = target: T35, MET_D1228H (Homo sapiens, UniProt P08581, D1228H)
T35 construct: purchased DiscoverX

[36] = target: T36, EGFR_E746-A750del (Homo sapiens, UniProt P00533, DEL746-750)
T36 construct: purchased DiscoverX

[37] = target: T37, MET_Y1235D (Homo sapiens, UniProt P08581, Y1235D)
T37 construct: purchased DiscoverX

[38] = target: T38, MST4 (Homo sapiens, UniProt Q9P289)
T38 construct: purchased DiscoverX
T38 sequence (Q9P289 whole entry): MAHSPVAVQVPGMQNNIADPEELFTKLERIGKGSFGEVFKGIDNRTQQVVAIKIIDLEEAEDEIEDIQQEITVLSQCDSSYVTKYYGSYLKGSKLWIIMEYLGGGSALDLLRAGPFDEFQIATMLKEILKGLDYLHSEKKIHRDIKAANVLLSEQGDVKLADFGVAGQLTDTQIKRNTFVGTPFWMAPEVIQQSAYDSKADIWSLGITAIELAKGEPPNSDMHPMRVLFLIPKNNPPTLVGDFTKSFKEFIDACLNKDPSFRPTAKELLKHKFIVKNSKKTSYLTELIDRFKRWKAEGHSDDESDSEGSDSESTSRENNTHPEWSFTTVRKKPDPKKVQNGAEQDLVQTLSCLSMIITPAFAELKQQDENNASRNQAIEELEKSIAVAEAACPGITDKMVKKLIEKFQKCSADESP

[39] = target: T39, PRKCH (Homo sapiens, UniProt P24723)
T39 construct: purchased DiscoverX
T39 sequence (P24723 whole entry): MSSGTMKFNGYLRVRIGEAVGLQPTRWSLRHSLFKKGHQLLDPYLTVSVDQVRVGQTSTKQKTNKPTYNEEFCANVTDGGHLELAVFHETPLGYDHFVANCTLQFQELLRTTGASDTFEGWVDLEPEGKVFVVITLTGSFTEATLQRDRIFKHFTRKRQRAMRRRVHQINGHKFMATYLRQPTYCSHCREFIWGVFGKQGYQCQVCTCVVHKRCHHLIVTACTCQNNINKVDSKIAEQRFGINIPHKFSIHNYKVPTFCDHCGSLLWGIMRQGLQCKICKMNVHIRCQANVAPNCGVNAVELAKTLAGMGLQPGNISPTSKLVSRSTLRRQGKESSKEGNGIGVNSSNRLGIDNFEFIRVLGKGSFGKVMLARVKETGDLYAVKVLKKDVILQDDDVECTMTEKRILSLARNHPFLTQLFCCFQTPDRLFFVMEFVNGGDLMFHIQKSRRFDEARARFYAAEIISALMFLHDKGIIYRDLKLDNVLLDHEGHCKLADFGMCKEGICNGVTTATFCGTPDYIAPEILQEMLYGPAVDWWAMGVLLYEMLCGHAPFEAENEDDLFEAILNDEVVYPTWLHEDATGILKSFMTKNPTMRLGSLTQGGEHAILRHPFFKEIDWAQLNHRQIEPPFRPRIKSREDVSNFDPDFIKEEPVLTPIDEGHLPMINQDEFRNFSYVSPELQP

[40] = target: T40, MET_Y1230H (Homo sapiens, UniProt P08581, Y1230H)
T40 construct: purchased DiscoverX

[41] = target: T41, YES1 (Homo sapiens, UniProt P07947)
T41 construct: purchased DiscoverX

[42] = target: T42, MAP3K14 (Homo sapiens, UniProt Q99558)
T42 construct: purchased DiscoverX
T42 sequence (Q99558 whole entry): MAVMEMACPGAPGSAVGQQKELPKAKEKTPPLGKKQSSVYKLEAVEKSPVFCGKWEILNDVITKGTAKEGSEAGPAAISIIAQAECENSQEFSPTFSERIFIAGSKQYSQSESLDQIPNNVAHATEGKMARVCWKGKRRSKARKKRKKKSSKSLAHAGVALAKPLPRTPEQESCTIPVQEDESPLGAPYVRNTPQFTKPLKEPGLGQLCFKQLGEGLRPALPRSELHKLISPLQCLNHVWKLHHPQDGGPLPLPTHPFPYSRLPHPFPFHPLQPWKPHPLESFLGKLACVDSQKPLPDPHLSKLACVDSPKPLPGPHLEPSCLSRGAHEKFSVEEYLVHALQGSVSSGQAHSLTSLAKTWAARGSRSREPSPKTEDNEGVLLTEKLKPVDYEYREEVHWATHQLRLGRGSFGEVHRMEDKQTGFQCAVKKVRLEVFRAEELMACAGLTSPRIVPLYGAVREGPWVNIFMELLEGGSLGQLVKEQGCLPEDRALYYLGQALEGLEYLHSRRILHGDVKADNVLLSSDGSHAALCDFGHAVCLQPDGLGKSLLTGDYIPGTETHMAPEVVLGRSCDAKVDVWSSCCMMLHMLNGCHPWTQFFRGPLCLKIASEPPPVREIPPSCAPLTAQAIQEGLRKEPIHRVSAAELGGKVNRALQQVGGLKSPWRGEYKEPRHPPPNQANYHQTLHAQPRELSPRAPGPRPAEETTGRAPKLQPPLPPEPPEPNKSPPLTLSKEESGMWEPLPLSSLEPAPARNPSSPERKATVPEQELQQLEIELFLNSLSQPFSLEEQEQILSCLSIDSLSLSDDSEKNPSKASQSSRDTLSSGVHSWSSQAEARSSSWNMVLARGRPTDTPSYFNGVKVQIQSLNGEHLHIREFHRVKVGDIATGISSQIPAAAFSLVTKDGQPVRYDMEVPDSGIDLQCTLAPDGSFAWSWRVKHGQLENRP

[43] = target: T43, MST1R (Homo sapiens, UniProt Q04912)
T43 construct: purchased DiscoverX

T1 sequence (Q16620 32-822): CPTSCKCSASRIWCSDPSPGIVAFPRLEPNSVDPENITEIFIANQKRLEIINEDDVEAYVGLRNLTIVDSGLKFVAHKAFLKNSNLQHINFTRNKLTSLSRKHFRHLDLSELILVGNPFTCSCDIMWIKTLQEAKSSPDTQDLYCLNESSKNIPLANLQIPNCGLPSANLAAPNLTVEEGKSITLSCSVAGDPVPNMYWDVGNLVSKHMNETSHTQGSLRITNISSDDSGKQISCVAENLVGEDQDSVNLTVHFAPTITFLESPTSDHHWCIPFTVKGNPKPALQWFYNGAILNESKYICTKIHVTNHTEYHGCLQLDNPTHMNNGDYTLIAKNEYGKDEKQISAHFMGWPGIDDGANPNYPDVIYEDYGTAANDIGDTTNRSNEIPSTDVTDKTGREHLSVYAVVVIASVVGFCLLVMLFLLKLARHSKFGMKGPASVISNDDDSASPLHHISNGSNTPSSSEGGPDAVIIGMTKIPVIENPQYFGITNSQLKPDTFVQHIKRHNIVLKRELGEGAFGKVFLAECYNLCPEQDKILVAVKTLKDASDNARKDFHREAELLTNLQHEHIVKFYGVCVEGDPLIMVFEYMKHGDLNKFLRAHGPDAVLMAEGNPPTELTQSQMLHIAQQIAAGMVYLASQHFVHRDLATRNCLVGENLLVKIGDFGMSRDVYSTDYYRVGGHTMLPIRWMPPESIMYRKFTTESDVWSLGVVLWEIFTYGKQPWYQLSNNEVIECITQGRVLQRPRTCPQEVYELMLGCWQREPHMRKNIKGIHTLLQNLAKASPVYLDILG

Work on `Clc1cc2cc(c1)-c1cnn3ccc(nc13)NCCOCCO2` [OD36] yielded an inhibition at 0.1 µM [1] of 28%, an inhibition at 0.1 µM [2] of 6% and an inhibition at 0.1 µM [3] of 1%. The inhibition at 0.1 µM [4] was -6%, the inhibition at 0.1 µM [5] was 47% and the inhibition at 0.1 µM [6] was 25%. The inhibition at 0.1 µM [7] was -3%, the inhibition at 0.1 µM [8] was 22% and the inhibition at 0.1 µM [9] was 4%. The inhibition at 0.1 µM [10] was 8%, the inhibition at 0.1 µM [11] was 22% and the inhibition at 0.1 µM [12] was 0%. It also gave an inhibition at 0.1 µM [13] of 15%, an inhibition at 0.1 µM [14] of 3% and an inhibition at 0.1 µM [15] of 17%. For the same compound, the inhibition at 0.1 µM [16] was 12%, the inhibition at 0.1 µM [17] was 33% and the inhibition at 0.1 µM [18] was -6%. The inhibition at 0.1 µM [19] was -1%, the inhibition at 0.1 µM [20] was 16% and the inhibition at 0.1 µM [21] was 14%. The inhibition at 0.1 µM [22] was 33%, the inhibition at 0.1 µM [23] was 4% and the inhibition at 0.1 µM [24] was 3%. The inhibition at 0.1 µM [25] was 36%, the inhibition at 0.1 µM [26] was 9% and the inhibition at 0.1 µM [27] was -7%. For the same compound, the inhibition at 0.1 µM [28] was 9%, the inhibition at 0.1 µM [29] was 16% and the inhibition at 0.1 µM [30] was 7%. It also gave an inhibition at 0.1 µM [31] of 12%, an inhibition at 0.1 µM [32] of 12% and an inhibition at 0.1 µM [33] of 17%. It also gave an inhibition at 0.1 µM [34] of 17%, an inhibition at 0.1 µM [35] of 8% and an inhibition at 0.1 µM [36] of 9%. For the same compound, the inhibition at 0.1 µM [37] was -5%, the inhibition at 0.1 µM [38] was 3% and the inhibition at 0.1 µM [39] was 5%. It also gave an inhibition at 0.1 µM [40] of -3%, an inhibition at 0.1 µM [41] of 28% and an inhibition at 0.1 µM [42] of 10%. It also gave an inhibition at 0.1 µM [43] of -3%.
Work on `Cc1cc2cc(c1)-c1cnn3ccc(nc13)NCCNC(=O)CCN(C)C2` [OD52] yielded an inhibition at 0.1 µM [1] of 28%, an inhibition at 0.1 µM [2] of 20% and an inhibition at 0.1 µM [3] of 16%. For the same compound, the inhibition at 0.1 µM [4] was 11%, the inhibition at 0.1 µM [5] was 10% and the inhibition at 0.1 µM [6] was 10%. For the same compound, the inhibition at 0.1 µM [7] was 7%, the inhibition at 0.1 µM [8] was 6% and the inhibition at 0.1 µM [9] was 6%. It also gave an inhibition at 0.1 µM [10] of 5%, an inhibition at 0.1 µM [11] of 4% and an inhibition at 0.1 µM [12] of 3%. The inhibition at 0.1 µM [13] was 2%, the inhibition at 0.1 µM [14] was 2% and the inhibition at 0.1 µM [15] was 1%. For the same compound, the inhibition at 0.1 µM [16] was 1%, the inhibition at 0.1 µM [17] was 1% and the inhibition at 0.1 µM [18] was 1%. It also gave an inhibition at 0.1 µM [19] of -1%, an inhibition at 0.1 µM [20] of -1% and an inhibition at 0.1 µM [21] of -1%. For the same compound, the inhibition at 0.1 µM [22] was -4%, the inhibition at 0.1 µM [23] was -4% and the inhibition at 0.1 µM [24] was -5%. For the same compound, the inhibition at 0.1 µM [25] was -5%, the inhibition at 0.1 µM [26] was -5% and the inhibition at 0.1 µM [27] was -6%. It also gave an inhibition at 0.1 µM [28] of -7%, an inhibition at 0.1 µM [29] of -7% and an inhibition at 0.1 µM [30] of -9%. It also gave an inhibition at 0.1 µM [31] of -10%, an inhibition at 0.1 µM [32] of -10% and an inhibition at 0.1 µM [33] of -10%. For the same compound, the inhibition at 0.1 µM [34] was -10%, the inhibition at 0.1 µM [35] was -11% and the inhibition at 0.1 µM [36] was -11%. For the same compound, the inhibition at 0.1 µM [37] was -15%, the inhibition at 0.1 µM [38] was -17% and the inhibition at 0.1 µM [39] was -20%. The inhibition at 0.1 µM [40] was -20%, the inhibition at 0.1 µM [41] was -22% and the inhibition at 0.1 µM [42] was -23%. It also gave an inhibition at 0.1 µM [43] of -24%.
